Target: T1, DCAF1 WD40 domain (residues 1077-1390) (Homo sapiens, UniProt Q9Y4B6)
T1 construct: DCAF1 WD40 domain (residues 1077-1390)
Assay: DCAF1 binding assay by SPR (Biacore 8K+), DCAF1-3 KD
Conditions: 25 °C, read-out: DCAF1-3 SPR (KD)

T1 sequence (Q9Y4B6 1077-1390): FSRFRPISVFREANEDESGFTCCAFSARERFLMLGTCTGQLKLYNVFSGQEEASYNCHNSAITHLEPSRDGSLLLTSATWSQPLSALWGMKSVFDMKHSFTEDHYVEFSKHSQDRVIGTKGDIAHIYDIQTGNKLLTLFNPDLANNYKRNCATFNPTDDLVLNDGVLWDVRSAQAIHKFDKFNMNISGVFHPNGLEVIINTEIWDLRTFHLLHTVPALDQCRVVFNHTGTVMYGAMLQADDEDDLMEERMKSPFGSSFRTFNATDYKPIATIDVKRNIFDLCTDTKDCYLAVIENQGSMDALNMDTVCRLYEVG

| Kd | SMILES |
| --- | --- |
| > 200 µM | C[C@@]1(Nc2cc(N3CCOCC3)ncn2)CCCN(c2cccc(F)c2)C1 [I-176] |
| > 200 µM | c1ccc2cc(N3CCC[C@@H](Nc4nccc(N5CCOCC5)n4)C3)ccc2c1 [I-32] |
| > 200 µM | Fc1cccc(N2CCC[C@@H](N3CCCc4c(N5CCOCC5)ccnc43)C2)c1 [I-197] |
| < 10 µM | Cc1cccc(F)c1-c1c(C(=O)N[C@@H](CC(N)=O)c2cccc(Cl)c2)c[nH]c1Nc1cc(N2CCCCC2)ccn1 [I-744] |
| 10 to 100 µM | COCCN1CCN(c2ccnc(N[C@@H]3CCCN(c4cccc(F)c4)C3)c2)CC1 [I-61] |
| < 10 µM | Cc1cccc(F)c1-c1c(C(=O)N[C@@H](CC(N)=O)c2cccc(Cl)c2)c[nH]c1C(=O)c1ncccn1 [I-648] |
| < 10 µM | Cc1sc2c(c1C)C(c1ccc(Cl)cc1)=N[C@@H](CC(=O)NCCOCCOCCOCCOCCOCCC1CCN(c3ccnc(N4CC[C@@H]5[C@H]4CCCN5c4cccc(F)c4)c3)CC1)c1nnc(C)n1-2 [I-891] |
| < 10 µM | CNC1CN(C(=O)C[C@H](NC(=O)c2cn[nH]c2-c2c(F)ccc(F)c2C)c2cccc(Cl)c2)C1 [I-880] |
| > 200 µM | N#Cc1cc2c(nc1N1CCC[C@@H](Nc3cc(N4CCOCC4)ccn3)C1)CCC2 [I-427] |
| 100 to 200 µM | c1ccc2cc(N3CCC[C@@H](Nc4nccc(N5CCOCC5)n4)C3)ncc2c1 [I-47] |
| > 200 µM | Fc1cccc(N2[C@H]3CCC[C@@H]2[C@H](Nc2nccc(N4CCOCC4)n2)CC3)c1 (stereo in doubt) [I-322] |
| > 200 µM | Fc1cccc([C@@H]2CCC[C@@H](Nc3nccc(N4CCOCC4)n3)C2)c1 [I-185] |
| > 200 µM | CN(C)C(=O)c1cccnc1N1CCC[C@@H](Nc2cc(N3CCOCC3)ccn2)C1 [I-784] |
| > 200 µM | Fc1cccc(N2CCC[C@@H](Nc3cc(C4CCCCC4)ccn3)C2)c1 [I-91] |
| > 200 µM | Fc1cccc(N2CCC[C@@H]3[C@H]2CCCN3c2cc(N3CCOCC3)ccn2)c1 [I-190] |
| < 10 µM | Cc1c(F)ccc(F)c1-c1c(C(=O)N[C@@H](CC(N)=O)c2cccc(Cl)c2)c[nH]c1C(=O)COCCOCCOCCOCCOCCN [I-809] |
| < 10 µM | COCCC(=O)c1c(-c2c(F)ccc(F)c2C)c(C(=O)N[C@@H](CC(N)=O)c2cccc(Cl)c2)cn1C [I-973] |
| 100 to 200 µM | COc1cccc(N2CCC[C@@H](Nc3cc(N4CCOCC4)ncn3)C2)c1 [I-9] |
| < 10 µM | C[C@@H]1[C@H](O)CCCN1c1ccnc(N2CC[C@@H]3[C@H]2CCCN3c2cccc(F)c2)c1 [I-832] |
| > 200 µM | NC(=O)[C@@H]1[C@H](Nc2cc(N3CCOCC3)ccn2)CCCN1c1cccc(F)c1 [I-278] |
| > 200 µM | NC(=O)C[C@H](NC(=O)c1cn(Cc2ccccc2)nc1-c1ccccc1F)c1cccc(Cl)c1 [I-495] |

| Kd | SMILES |
| --- | --- |
| > 200 µM | OCCc1ccc(N2CCC[C@@H](Nc3cc(N4CCOCC4)ccn3)C2)cc1 [I-860] |
| > 200 µM | CSc1ccc(N2CCC[C@@H](Nc3cc(N4CCOCC4)ccn3)C2)c(Cl)c1 [I-857] |
| 10 to 100 µM | NC(=O)C[C@H](NC(=O)c1cc[nH]c1-c1ccccc1F)c1cccc(Cl)c1 [I-89] |
| 10 to 100 µM | OCCC[C@H]1C[C@H]2[C@@H](CCCN2c2cccc(F)c2)N1c1cc(N2CCCCC2)ccn1 [I-834] |
| 10 to 100 µM | O[C@H]1CCCN(c2ccnc(N3CC[C@H]4[C@@H]3CCCN4c3cccc(F)c3)c2)C1 [I-797] |
| > 200 µM | Nc1cc(N2CCOCC2)cc(N[C@@H]2CCCN(c3cccc(F)c3)C2)n1 [I-369] |
| > 200 µM | NC(=O)C[C@H](NC(=O)c1ccc(C#Cc2ccccc2)cc1)c1cccc(Cl)c1 [I-438] |
| > 200 µM | NC(=O)C[C@H](NC(=O)c1cn[nH]c1-c1ccccc1F)c1ccccc1O [I-339] |
| < 10 µM | NC(=O)N1Cc2ccc(N3CCC[C@H]4[C@@H]3CCN4c3cc(N4CCCCC4)ccn3)cc2C1 [I-956] |
| < 10 µM | Cc1c(F)ccc(F)c1-c1[nH]ncc1C(=O)N[C@@H](CC(=O)N1CCN(C)CC1)c1cccc(Cl)c1 [I-843] |
| > 200 µM | Cc1sc2c(c1C)C(c1ccc(Cl)cc1)=N[C@@H](CC(=O)NCCCCCCCCCCCCCCC1CCN(c3ccnc(N4CC[C@@H]5[C@H]4CCCN5c4cccc(F)c4)c3)CC1)c1nnc(C)n1-2 [I-902] |
| > 200 µM | NC(=O)C[C@@]1(NC(=O)c2cn[nH]c2-c2ccccc2F)CCc2ccc(Cl)cc21 [I-361] |
| > 200 µM | O=C(N[C@H](c1cccc(Cl)c1)[C@H]1CCCNC1=O)c1c[nH]nc1-c1ccccc1F [I-194] |
| < 10 µM | c1cc(CN2CCCC2)cc(N2CCC[C@@H](Nc3cc(N4CCOCC4)ccn3)C2)c1 [I-689] |
| > 200 µM | C=CC(=O)N(C)C1CC(N(C)c2ccnc(N[C@@H]3CCCN(c4cccc(F)c4)C3)c2)C1 (stereo partly drawn) [I-463] |
| > 200 µM | O=C1Cc2cnc(N3CCC[C@@H](Nc4cc(N5CCOCC5)ccn4)C3)cc2N1 [I-434] |
| < 10 µM | Cc1c(F)ccc(F)c1-c1c(C(=O)N[C@@H](CC(N)=O)c2cccc(Cl)c2)c[nH]c1C#N [I-798] |
| < 10 µM | c1ccc([C@H]2CCC[C@H](Nc3cc(N4CCCCC4)ccn3)C2)cc1 [I-755] |
| 10 to 100 µM | NC(=O)C[C@H](NC(=O)C1=C(c2c(F)cccc2F)CN(Cc2ccccc2)C1)c1cccc(Cl)c1 [I-587] |
| > 200 µM | NC(=O)C[C@H](NC(=O)CNC1=Nc2ccccc2CC1)c1cccc(Cl)c1 [I-440] |
| > 200 µM | Fc1cccc(N2C[C@H](F)C[C@@H](Nc3cc(N4CCOCC4)ncn3)C2)c1 [I-135] |

| Kd | SMILES |
| --- | --- |
| > 200 µM | O=C(c1cc(N2CCCCC2)ccn1)[C@@H]1CCCN(c2cccc(F)c2)C1 [I-612] |
| 10 to 100 µM | c1ccc2c(N3CCC[C@@H](Nc4cc(N5CCOCC5)ccn4)C3)nsc2c1 [I-112] |
| 10 to 100 µM | OCc1c(CN2CCCCC2)cccc1C1CCCN(c2cccc(F)c2)C1 (stereo not drawn) [I-981] |
| 100 to 200 µM | NC(=O)C[C@H](NC(=O)c1nc(N)sc1-c1ccccc1F)c1cccc(Cl)c1 [I-565] |
| 100 to 200 µM | c1cc(N2CCC[C@@H](Nc3nccc(N4CCOCC4)n3)C2)c2cccnc2c1 [I-53] |
| < 10 µM | C[C@H]1CC[C@@H](c2[nH]ncc2C(=O)N[C@@H](CC(N)=O)c2cccc(Cl)c2)CC1 [I-742] |
| > 200 µM | NC(=O)C[C@@]1(NC(=O)c2c[nH]nc2-c2ccccc2F)CCc2cc(Cl)ccc21 [I-242] |
| > 200 µM | c1cc(N2CCOCC2)cc(NC2CCCN(c3cnn[nH]3)C2)n1 (stereo not drawn) [I-486] |
| > 200 µM | Fc1cccc(N2CCC[C@@H](N(c3ccncc3)c3cc(N4CCOCC4)ccn3)C2)c1 [I-307] |
| 10 to 100 µM | NC(=O)C[C@H](NC(=O)c1cn[nH]c1-c1ccncc1)c1cccc(Cl)c1 [I-336] |
| 10 to 100 µM | C[C@@H]1CCCN(c2ccnc(N[C@@H]3CCCN(c4cccc(F)c4)C3)c2)C1 [I-552] |
| 10 to 100 µM | NC(=O)C[C@H](NC(=O)c1cn[nH]c1C1=CCOCC1)c1cccc(Cl)c1 [I-496] |
| < 10 µM | Cc1c(F)ccc(F)c1-c1c(C(=O)N[C@@H](CC(=O)N(C)C)c2cccc(Cl)c2)c[nH]c1C(=O)COCCOCCOCCOCCOCCN [I-822] |
| 10 to 100 µM | NC(=O)C[C@H](NC(=O)c1cn[nH]c1-c1cccc(O)c1)c1cccc(Cl)c1 [I-332] |
| < 10 µM | Cc1c(F)ccc(F)c1-c1c(C(=O)NC(CC(N)=O)c2cccc(Cl)c2)cn(C)c1C(=O)COCCOCCOCCOCCOCCN (stereo not drawn) [I-844] |
| > 200 µM | C=CC(=O)N1C[C@H](c2ccc(Br)cc2)[C@@H]1C(=O)Nc1cccc2cccnc12 [I-517] |
| 10 to 100 µM | Fc1cccc(N2CCCC3(CNc4cnc(N5CCCCC5)cc4N3)C2)c1 (stereo not drawn) [I-993] |
| > 200 µM | Fc1cccc(N2CCCC(Nc3cc(N4CCOCC4)ccn3)C23CC(F)(F)C3)c1 (stereo not drawn) [I-296] |
| > 200 µM | COc1ccc(N2CCC[C@@H](Nc3cncc(N4CCOCC4)c3)C2)cc1 [I-551] |
| < 10 µM | Cc1c(F)ccc(F)c1-c1[nH]ncc1C(=O)N[C@@H](CC(=O)N1CCNCC1)c1cccc(Cl)c1 [I-885] |
| < 10 µM | Cc1cccc([C@H](CC(N)=O)NC(=O)c2cn[nH]c2-c2ccccc2F)c1 [I-108] |

| Kd | SMILES |
| --- | --- |
| 10 to 100 µM | O=C(O)C[C@H](NC(=O)c1cn[nH]c1-c1ccccc1F)c1cccc(Cl)c1 [I-740] |
| 10 to 100 µM | OCCCc1cccc(N2CCC[C@@H](Nc3cc(N4CCOCC4)ccn3)C2)c1 [I-862] |
| > 200 µM | C=CC(=O)NC1CCN(c2ccnc(N[C@@H]3CCCN(c4cccc(F)c4)C3)c2)CC1 [I-451] |
| 10 to 100 µM | Fc1cccc(N2CCC[C@H](Nc3cc(N4CCOCC4)ccn3)C2)c1 [I-499] |
| < 10 µM | C[C@@H]1CCCCC1c1[nH]ncc1C(=O)N[C@@H](CC(N)=O)c1cccc(Cl)c1 (stereo partly drawn) [I-724] |
| < 10 µM | C=CC(=O)NCCCC1CCN(c2ccnc(N3CC[C@H]4[C@@H]3CCCN4c3cccc(F)c3)c2)CC1 [I-712] |
| < 10 µM | Cc1sc2c(c1C)C(c1ccc(Cl)cc1)=N[C@@H](CC(=O)NCCOCCOCCOCCOCCOCC(=O)c1[nH]cc(C(=O)N[C@@H](CC(N)=O)c3cccc(Cl)c3)c1-c1ccccc1F)c1nnc(C)n1-2 [I-897] |
| > 200 µM | Fc1cccc(N2CCC[C@@H](Nc3cncc(N4CCCCC4)c3)C2)c1 [I-528] |
| < 10 µM | Cc1c(F)ccc(F)c1-c1c(C(=O)N[C@@H](CC(=O)N2CCNCC2)c2cccc(Cl)c2)c[nH]c1C(=O)c1ccccc1 [I-851] |
| > 200 µM | Cc1cccc([C@H](CC(N)=O)NC(=O)c2cn[nH]c2-c2ccccc2F)n1 [I-143] |
| < 10 µM | Cc1c(F)ccc(F)c1-c1c(C(=O)N[C@@H](CC(N)=O)c2cccc(Cl)c2)c[nH]c1C(=O)c1cccc(-c2ccccc2)c1 [I-702] |
| < 10 µM | NC(=O)OCc1cccc(N2CCC[C@H]3[C@@H]2CCN3c2cc(N3CCCCC3)ccn2)c1 [I-954] |
| < 10 µM | Cc1cccc(F)c1-c1c(C(=O)N[C@@H](CC(N)=O)c2cccc(Cl)c2)c[nH]c1C(=O)Cc1ccccc1 [I-622] |
| > 200 µM | C=CC(=O)Nc1ccc(-c2[nH]ncc2C(=O)N[C@H](CC(N)=O)c2cccc(Cl)c2)cc1 [I-536] |
| < 10 µM | C=CC(=O)N(C)CCCCC1CCN(c2ccnc(N3CC[C@@H]4[C@H]3CCCN4c3cccc(F)c3)c2)CC1 [I-850] |
| > 200 µM | CN1C[C@H](Nc2cc(N3CCOCC3)ccn2)CCC1CC(=O)Nc1cccc(Cl)c1 (stereo partly drawn) [I-145] |
| > 200 µM | NC(=O)C[C@](CO)(NC(=O)c1c[nH]nc1-c1ccccc1F)c1cccc(Cl)c1 [I-253] |
| > 200 µM | OCc1cnc2ccc(N3CCC[C@@H](Nc4cc(N5CCCCC5)ccn4)C3)nn12 [I-760] |

— patent US20260373266A1, “PROTEIN DEGRADERS AND USES THEREOF” (KYMERA THERAPEUTICS, INC., priority 2022, published 2026)
